Here are results for four molecules from US7192924B2, “Corticotropin releasing factor 2 receptor agonists” (priority 2002, dated 2007).

Peptide text beside a SMILES is read from it. A value given as a limit tells only on which side of the number the result lay.

Usually EC50 stands for the midpoint of the concentration-response curve.

One assay addresses T1, CRF1R (Homo sapiens, UniProt P34998).
T1 sequence (P34998 24-415): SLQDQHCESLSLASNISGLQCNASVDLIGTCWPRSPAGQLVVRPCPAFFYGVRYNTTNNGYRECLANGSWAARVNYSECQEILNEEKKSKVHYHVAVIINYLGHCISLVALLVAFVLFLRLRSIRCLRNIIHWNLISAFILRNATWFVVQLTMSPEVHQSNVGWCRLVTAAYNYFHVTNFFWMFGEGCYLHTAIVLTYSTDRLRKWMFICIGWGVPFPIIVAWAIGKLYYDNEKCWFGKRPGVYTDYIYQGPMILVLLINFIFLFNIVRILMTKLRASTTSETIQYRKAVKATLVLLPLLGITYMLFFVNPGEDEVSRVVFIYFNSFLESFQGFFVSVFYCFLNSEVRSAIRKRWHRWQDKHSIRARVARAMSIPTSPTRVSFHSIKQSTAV
The experiment in a line: CRF1R agonist activity (EC50, Emax), called comparative CRF binding. The class given is cell-based. The conditions noted are these: read-out: CRF1R EC50. The source says:
(§1) The pharmacological activity and selectivity of the peptides of present invention can be determined using published test procedures. See, e.g, U.S. patent application Ser. No. 09/799,978. Because CRF2R and CRF1R are homologous proteins, it is expected that a certain proportion of agonists for CRF2R will also function as agonists of CRF1R. As discussed above, activation of CRF1R induces activation of the HPA axis since increased corticosteroid production leads to skeletal muscle atrophy. In most cases in which an increase in muscle mass or function is desired, it is not desirable to activate the HPA axis.
(§2) Because it is desirable to discriminate binding between CRF2R, as compared with CRF1R, the assays described above may be conducted using a cell, or membrane from a cell, which expresses only CRF2R or the assays can be conducted with a recombinant source of CRF2R. Cells expressing both forms of CRFR may be modified using homologous recombination to inactivate or otherwise disable the CRF1R gene. Alternatively, if the source of CRFR contains more than one CRFR type, the background signal produced by the receptor which is not of interest must be subtracted from the signal obtained in the assay. […] Known antagonists of CRFRs include, but, are not limited to, antalarmin (CRF1R selective), antisauvagine-30 (CRF2R selective) and astressin (nonselective for CRF1R/CRF2R).
(§3) Cell-based assays include the steps of contacting cells which express CRF1R or CRF2R with a peptide of the present invention or control and measuring activation of the CRFR by measuring the expression or activity of components of the CRFR signal transduction pathways.
(§4) As described in the background section above, CRFRs appear to couple through several different pathways including Gαs, Gαq or Gαi, depending upon the cell type. It is thought that agonist activation of CRFR allows the receptor to signal via any of these pathways, provided that the necessary pathway components are present in the particular cell type. Thus, to assay a particular peptide of the present invention for CRFR activation, an assay can use any of the signal transduction pathways as the readout even if the relevant cell type for treatment, in vivo, couples CRFR to skeletal muscle atrophy via a different pathway. […] Assays for measuring activation of these signaling pathways are known in the art.
(§5) For example, after contact with a peptide of the present invention, lysates of the cells can be prepared and assayed for induction of cAMP. cAMP is induced in response to Gαs activation. Because Gαs is activated by receptors other than CRFR and because a test peptide may be exerting its effect through CRFRs or by another mechanism, two control comparisons are relevant for determining whether the peptide increases levels of cAMP via activation of a CRFR. One control compares the cAMP level of cells contacted with the peptide and the cAMP level of cells contacted with a control compound (i.e., the vehicle in which the peptide is dissolved).
(§6) In one example, cAMP induction is measured with the use of DNA constructs containing the cAMP responsive element linked to any of a variety of reporter genes can be introduced into cells expressing CRFRs. Such reporter genes include, but are not limited to, chloramphenicol acetyltransferase (CAT), luciferase, glucuronide synthetase, growth hormone, fluorescent proteins (e.g., Green Fluorescent Protein), or alkaline phosphatase. Following exposure of the cells to the peptide, the level of reporter gene expression can be quantitated to determine the peptide's ability to increase cAMP levels and thus determine the peptide's ability to activate the CRFR.
(§7) In addition to using cells expressing full length CRFRs, cells can be engineered which express CRFRs containing the ligand binding domain of the receptor coupled to, or physically modified to contain, reporter elements or to interact with signaling proteins.

The target in another assay is T2, CRF2R (Homo sapiens, UniProt Q13324).
T2 sequence (Q13324 1-411): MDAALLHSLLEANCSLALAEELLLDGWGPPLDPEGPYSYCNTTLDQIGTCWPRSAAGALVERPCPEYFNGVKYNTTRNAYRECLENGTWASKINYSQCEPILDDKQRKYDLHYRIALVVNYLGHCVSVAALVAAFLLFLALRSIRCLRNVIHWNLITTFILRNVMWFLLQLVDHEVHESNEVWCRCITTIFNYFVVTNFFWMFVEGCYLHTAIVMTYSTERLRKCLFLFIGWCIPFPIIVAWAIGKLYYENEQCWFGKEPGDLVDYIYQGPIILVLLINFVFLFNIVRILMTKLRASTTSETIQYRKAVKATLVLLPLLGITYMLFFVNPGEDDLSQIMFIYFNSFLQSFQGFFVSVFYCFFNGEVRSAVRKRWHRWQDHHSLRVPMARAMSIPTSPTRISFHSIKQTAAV
Kind of assay: CRF2R agonist activity (EC50, Emax), called comparative CRF binding. The class given is cell-based. The note with it: read-out: CRF2R EC50.
Excerpt: as §1, §2, §3, §4, §5, §6, §7

For the molecule `CC[C@H](C)[C@H](N)C(=O)N[C@H](C(=O)N[C@@H](CC(C)C)C(=O)N[C@@H](CO)C(=O)N[C@@H](CC(C)C)C(=O)N[C@@H](CC(=O)O)C(=O)N[C@H](C(=O)N1CCC[C@H]1C(=O)N[C@H](C(=O)NCC(=O)N[C@@H](CC(C)C)C(=O)N[C@@H](CC(C)C)C(=O)N[C@@H](CCC(N)=O)C(=O)N[C@@H](CCC(=O)O)C(=O)N[C@@H](CC(C)C)C(=O)N[C@@H](CC(C)C)C(=O)N[C@@H](CCC(=O)O)C(=O)N[C@@H](CCSC)C(=O)N[C@@H](C)C(=O)N[C@@H](CCCNC(=N)N)C(=O)N[C@@H](C)C(=O)N[C@@H](CCC(=O)O)C(=O)N[C@@H](CCC(N)=O)C(=O)N[C@@H](CC(C)C)C(=O)N[C@@H](C)C(=O)N[C@@H](CCC(N)=O)C(=O)N[C@@H](CCC(N)=O)C(=O)N[C@@H](C)C(=O)N[C@@H](Cc1c[nH]cn1)C(=O)N[C@@H](CO)C(=O)N[C@@H](CC(N)=O)C(=O)N[C@@H](CCCNC(=N)N)C(=O)N[C@@H](CCCCN)C(=O)N[C@@H](CC(C)C)C(=O)N[C@@H](CCSC)C(=O)N[C@@H](CCC(=O)O)C(=O)N[C@H](C(=O)N[C@H](C(N)=O)[C@@H](C)CC)[C@@H](C)CC)[C@@H](C)CC)C(C)C)C(C)C` [compound 1] (H-IVLSLDVPIGLLQELLEMARAEQLAQQAHSNRKLMEII-NH2; N-terminus assumed), the EC50 at CRF1R is 783 nM; at CRF2R, 31.5 nM.
For the molecule `CC[C@H](C)[C@H](N)C(=O)N[C@H](C(=O)N[C@@H](CC(C)C)C(=O)N[C@@H](CO)C(=O)N[C@@H](CC(C)C)C(=O)N[C@@H](CC(=O)O)C(=O)N[C@H](C(=O)N1CCC[C@H]1C(=O)N[C@H](C(=O)NCC(=O)N[C@@H](CC(C)C)C(=O)N[C@@H](CC(C)C)C(=O)N[C@@H](CCC(N)=O)C(=O)N[C@H](C(=O)N[C@@H](CC(C)C)C(=O)N[C@@H](CC(C)C)C(=O)N[C@@H](CCC(=O)O)C(=O)N[C@@H](CCC(N)=O)C(=O)N[C@H](C(=O)N[C@@H](CCCCN)C(=O)N[C@@H](C)C(=O)N[C@@H](CC(=O)O)C(=O)N[C@@H](C)C(=O)N[C@@H](C)C(=O)N[C@@H](CCCNC(=N)N)C(=O)N[C@@H](CCC(=O)O)C(=O)N[C@@H](CCC(N)=O)C(=O)N[C@@H](C)C(=O)N[C@H](C(=O)N[C@H](C(=O)N[C@@H](CC(N)=O)C(=O)N[C@@H](C)C(=O)N[C@@H](CCCNC(=N)N)C(=O)N[C@H](C(=O)N[C@@H](CC(C)C)C(=O)N[C@@H](C)C(=O)N[C@@H](CCCNC(=N)N)C(=O)N[C@H](C(N)=O)C(C)C)[C@@H](C)CC)[C@@H](C)O)[C@@H](C)O)[C@@H](C)O)[C@@H](C)CC)[C@@H](C)CC)C(C)C)C(C)C` [compound 108] (H-IVLSLDVPIGLLQILLEQTKADAAREQATTNARILARV-NH2; N-terminus assumed), the EC50 was above 100 nM at CRF1R and 79 nM on CRF2R.
The like results for `CC[C@H](C)[C@H](N)C(=O)N[C@H](C(=O)N[C@@H](CC(C)C)C(=O)N[C@@H](CO)C(=O)N[C@@H](CC(C)C)C(=O)N[C@@H](CC(=O)O)C(=O)N[C@H](C(=O)N1CCC[C@H]1C(=O)N[C@H](C(=O)NCC(=O)N[C@@H](CC(C)C)C(=O)N[C@@H](CC(C)C)C(=O)N[C@@H](CCC(N)=O)C(=O)N[C@H](C(=O)N[C@@H](CC(C)C)C(=O)N[C@@H](CC(C)C)C(=O)N[C@@H](CCC(=O)O)C(=O)N[C@@H](CCC(N)=O)C(=O)N[C@@H](CCC(=O)O)C(=O)N[C@@H](CCCNC(=N)N)C(=O)N[C@@H](CCC(N)=O)C(=O)N[C@@H](CCCNC(=N)N)C(=O)N[C@@H](C)C(=O)N[C@@H](C)C(=O)N[C@@H](CCCNC(=N)N)C(=O)N[C@@H](CCC(=O)O)C(=O)N[C@@H](CCC(N)=O)C(=O)N[C@@H](C)C(=O)N[C@H](C(=O)N[C@H](C(=O)N[C@@H](CC(N)=O)C(=O)N[C@@H](C)C(=O)N[C@@H](CCCNC(=N)N)C(=O)N[C@H](C(=O)N[C@@H](CC(C)C)C(=O)N[C@@H](C)C(=O)N[C@@H](CCCNC(=N)N)C(=O)N[C@H](C(N)=O)C(C)C)[C@@H](C)CC)[C@@H](C)O)[C@@H](C)O)[C@@H](C)CC)[C@@H](C)CC)C(C)C)C(C)C` [compound 111] (H-IVLSLDVPIGLLQILLEQERQRAAREQATTNARILARV-NH2; N-terminus assumed) were, in that order, above 100 nM and 11 nM.
Turning to `CC[C@H](C)[C@H](N)C(=O)N[C@H](C(=O)N[C@@H](CC(C)C)C(=O)N[C@@H](CO)C(=O)N[C@@H](CC(C)C)C(=O)N[C@@H](CC(=O)O)C(=O)N[C@H](C(=O)N1CCC[C@H]1C(=O)N[C@H](C(=O)NCC(=O)N[C@@H](CC(C)C)C(=O)N[C@@H](CC(C)C)C(=O)N[C@@H](CCC(N)=O)C(=O)N[C@H](C(=O)N[C@@H](CC(C)C)C(=O)N[C@@H](CC(C)C)C(=O)N[C@@H](CCC(=O)O)C(=O)N[C@@H](CCC(N)=O)C(=O)N[C@@H](C)C(=O)N[C@@H](CCCNC(=N)N)C(=O)N[C@@H](CCC(N)=O)C(=O)N[C@@H](CCCNC(=N)N)C(=O)N[C@@H](C)C(=O)N[C@@H](C)C(=O)N[C@@H](CCCNC(=N)N)C(=O)N[C@@H](CCC(=O)O)C(=O)N[C@@H](CCC(N)=O)C(=O)N[C@@H](C)C(=O)N[C@H](C(=O)N[C@H](C(=O)N[C@@H](CC(N)=O)C(=O)N[C@@H](C)C(=O)N[C@@H](CCCNC(=N)N)C(=O)N[C@H](C(=O)N[C@@H](CC(C)C)C(=O)N[C@@H](C)C(=O)N[C@@H](CCCNC(=N)N)C(=O)N[C@H](C(N)=O)C(C)C)[C@@H](C)CC)[C@@H](C)O)[C@@H](C)O)[C@@H](C)CC)[C@@H](C)CC)C(C)C)C(C)C` [compound 114] (H-IVLSLDVPIGLLQILLEQARQRAAREQATTNARILARV-NH2; N-terminus assumed), the EC50 on CRF1R is above 100 nM; at CRF2R, 3.42 nM.
